Literature values in patent US12357667B2, “Nutraceutical formulations to prevent, treat, and inhibit excess cytokines, SARS-CoV-2 spike proteins, and mRNA vaccine spike proteins” (priority 2021, dated 2025).
Structures can show the parent of a compound that is named as a salt.

Assays:
SARS-CoV-2 [1] = settings: structure-based molecular docking
Furin = Furin (Homo sapiens, UniProt P09958)
[2] = 6 mg/day for 4 weeks, active young men
[3] = hyperlipidemic rats
[4] = target: T1, papain-like protease (PLpro) (Severe acute respiratory syndrome coronavirus 2, UniProt P0DTD1)
T1 construct: papain-like protease (PLpro)

[5] = target: T2, 3-chymotrypsin-like protease (3CLpro) (Severe acute respiratory syndrome coronavirus 2, UniProt P0DTD1)
T2 construct: 3-chymotrypsin-like protease (3CLpro)

SARS-CoV-2 viral S-spike = SARS-CoV-2 viral S-spike (Severe acute respiratory syndrome coronavirus 2, UniProt P0DTC2); settings: supercomputer modeling; out of 20 top performers
[6] = not given; remark: listed apart in the source
RBD and ACE2 = RBD and ACE2 (Severe acute respiratory syndrome coronavirus 2, UniProt P0DTC2)
pseudotyped SARS-CoV-2 = settings: VeroE6/TMPRSS2 cells
SARS-CoV-2 [7] = test system: SARS-CoV-2
[8] = test system: mouse hepatitis virus (MHV); settings: A549-MHVR cells, non-toxic conditions; read-out: EC50, suppression of MHV replication
SARS-CoV-2 [9] = settings: lung epithelial cells
SARS-CoV-2 [10] = settings: patients previously taking CBD relative to matched pairs or the general population
SARS-CoV-2 [11] = test system: SARS-CoV-2; remark: listed apart in the source
SARS-CoV-2 [12] = test system: SARS-CoV-2; remark: listed apart in the source
influenza = settings: 6-month preventive administration
[13] = test system: human influenza viruses (H5N1, Vietnam/VN1203 strain)
[14] = test system: pseudovirus expressing the SARS-CoV-2 spike protein
[15] = test system: multiple strains of SARS-CoV-2, including Delta and Omicron
[16] = test system: respiratory syncytial virus; settings: respiratory syncytial virus-infected mice
[17] = test system: glutamate-cysteine ligase; parameters: dose or concentration left out as unconfirmed; settings: zinc, ARPE-19 cells
blood coagulation = settings: in vitro coagulation assays
CB1 = CB1 (Homo sapiens, UniProt P21554)
Chain of CB1 (P21554 whole entry, species assumed): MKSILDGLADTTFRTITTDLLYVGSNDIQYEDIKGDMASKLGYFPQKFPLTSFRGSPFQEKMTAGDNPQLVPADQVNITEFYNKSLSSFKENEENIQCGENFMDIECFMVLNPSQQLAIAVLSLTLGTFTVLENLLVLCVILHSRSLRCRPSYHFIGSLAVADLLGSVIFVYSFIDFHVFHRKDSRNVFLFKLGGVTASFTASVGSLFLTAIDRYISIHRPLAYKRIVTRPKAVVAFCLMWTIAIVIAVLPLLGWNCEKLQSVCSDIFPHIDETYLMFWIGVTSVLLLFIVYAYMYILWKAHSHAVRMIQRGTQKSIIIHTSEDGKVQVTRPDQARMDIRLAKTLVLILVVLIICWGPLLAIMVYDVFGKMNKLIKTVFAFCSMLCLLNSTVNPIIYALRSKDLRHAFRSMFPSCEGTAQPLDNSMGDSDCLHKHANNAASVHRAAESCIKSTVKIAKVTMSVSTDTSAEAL

[18] = target: cannabinoid G-protein coupled receptor CB2 (Homo sapiens, UniProt P34972)
Chain of cannabinoid G-protein coupled receptor CB2 (P34972 whole entry): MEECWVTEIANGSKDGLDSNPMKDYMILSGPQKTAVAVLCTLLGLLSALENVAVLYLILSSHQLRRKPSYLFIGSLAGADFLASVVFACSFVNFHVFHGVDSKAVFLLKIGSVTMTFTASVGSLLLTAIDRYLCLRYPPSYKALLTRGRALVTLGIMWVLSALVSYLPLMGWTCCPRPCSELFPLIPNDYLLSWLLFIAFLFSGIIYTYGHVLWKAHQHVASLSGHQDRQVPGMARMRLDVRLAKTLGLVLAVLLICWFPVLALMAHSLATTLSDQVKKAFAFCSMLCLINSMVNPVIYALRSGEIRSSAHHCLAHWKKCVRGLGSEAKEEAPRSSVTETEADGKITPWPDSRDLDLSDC

main proteases (6Y2E) = target: T3, main proteases (6Y2E) (Severe acute respiratory syndrome coronavirus 2, UniProt P0DTD1); settings: 6Y2E active sites
T3 construct: main proteases (6LU7 and 6Y2E)

Chain of Furin (P09958 108-794, species assumed): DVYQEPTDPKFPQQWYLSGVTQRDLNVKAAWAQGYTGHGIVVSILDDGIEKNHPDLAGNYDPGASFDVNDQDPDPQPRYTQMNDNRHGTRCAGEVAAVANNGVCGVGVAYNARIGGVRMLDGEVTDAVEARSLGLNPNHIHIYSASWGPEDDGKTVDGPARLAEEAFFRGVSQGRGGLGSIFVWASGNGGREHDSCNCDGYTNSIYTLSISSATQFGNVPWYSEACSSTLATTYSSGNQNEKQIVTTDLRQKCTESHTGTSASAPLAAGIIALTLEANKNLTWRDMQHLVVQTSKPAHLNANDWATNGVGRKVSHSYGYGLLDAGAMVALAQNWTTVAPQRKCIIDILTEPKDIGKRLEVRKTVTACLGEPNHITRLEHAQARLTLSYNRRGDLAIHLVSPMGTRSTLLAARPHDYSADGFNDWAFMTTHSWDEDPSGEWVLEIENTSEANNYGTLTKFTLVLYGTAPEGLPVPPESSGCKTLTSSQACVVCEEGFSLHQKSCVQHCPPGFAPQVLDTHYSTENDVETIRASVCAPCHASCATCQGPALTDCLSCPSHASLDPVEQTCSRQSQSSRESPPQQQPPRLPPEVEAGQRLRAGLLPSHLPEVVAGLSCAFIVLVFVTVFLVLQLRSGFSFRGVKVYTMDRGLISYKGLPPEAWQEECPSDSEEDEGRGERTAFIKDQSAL

Nc1nc2ncc(CNc3ccc(C(=O)N[C@@H](CCC(=O)O)C(=O)O)cc3)nc2c(=O)[nH]1 [folic acid]
binding affinities against the SARS-CoV-2 (SARS-CoV-2 [1]): strong and stable binding affinities
furin inhibition (Furin): inhibit furin

Cc1c(-c2cnccn2)ssc1=S [oltipraz]
ACE2 levels (ACE2): reduces ACE2 levels

CC1=C(/C=C/C(C)=C/C=C/C(C)=C/C=C/C=C(C)/C=C/C=C(C)/C=C/C2=C(C)C(=O)[C@@H](O)CC2(C)C)C(C)(C)C[C@H](O)C1=O [Astaxanthin]
Glutathione higher compared with placebo [2]: ~7%
oxidative stress markers or substrate utilization during exercise [2]: did not affect
Glutathione, whole blood ([2]; fasting blood sample): 1,233±133 μM
coagulation, fibrinolytic activity and platelet aggregation [3]: inhibit coagulation, increase fibrinolytic activity and reduce platelet aggregation

O=c1c(O)c(-c2ccc(O)c(O)c2)oc2cc(O)cc(O)c12 [Quercetin]
solubility: low solubility
docking binding energy [4]: -4.62 kcal/mol
docking binding energy [5]: -6.25 kcal/mol
rank for inhibition of SARS-CoV-2 viral S-spike binding to cells (SARS-CoV-2 viral S-spike): fifth
oral absorption / systemic bioavailability [6]: reduced oral absorption

N[C@@H](CCC(=O)N[C@@H](CS)C(=O)NCC(=O)O)C(=O)O [glutathione, γ-glutamyl cysteinyl glycine]
oral absorption / systemic bioavailability [6]: poor
in vitro binding of RBD and ACE2 (RBD and ACE2): inhibited
spike-mediated cell-cell fusion (SARS-CoV-2 spike): inhibited
pseudotyped viral infection (pseudotyped SARS-CoV-2): inhibited

CN1c2c(nc(N)[nH]c2=O)NCC1CNc1ccc(C(=O)N[C@@H](CCC(=O)O)C(=O)O)cc1 (stereo partly shown) [5-methyl tetrahydrofolic acid]
binding affinities against the SARS-CoV-2 (SARS-CoV-2 [1]): strong and stable binding affinities

C=C(C)[C@@H]1CCC(C)=C[C@H]1c1c(O)cc(CCCCC)cc1O [CBD, Cannabidiol]
inhibition of SARS-CoV-2 replication (SARS-CoV-2 [7]; Vero E6 monkey kidney epithelial cells): inhibited SARS-CoV-2 replication
toxicity (SARS-CoV-2 [7]; at the effective doses): No toxicity
EC50 [8]: ~5 µM
IL-1β, IL-6, TNF and IL-18 (Caco-2 cells; ELISA, CBD 10-9-10-7 M): parallel inhibition
transepithelial electrical resistance (TEER) (Caco-2 cells; following CBD treatment): restoration
proinflammatory markers triggered by Spike Protein (TLR-4, ACE-2, RhoA-GTPase, NLRP3, Caspase-1) (Caco-2 cells; immunoblot, CBD 10-9-10-7 M): reduce all the analyzed proinflammatory markers
block of SARS-CoV-2 replication (SARS-CoV-2 [9]): potently block
SARS-CoV-2 infection incidence (SARS-CoV-2 [10]): significantly lower

C=C(C)[C@@H]1CCC(CO)=C[C@H]1c1c(O)cc(CCCCC)cc1O [7-0H-CBD, 7-OH-CBD]
block of SARS-CoV-2 replication (SARS-CoV-2 [9]): potently block

C=C(C)[C@@H]1CCC(C)=C[C@H]1c1c(O)cc(CCC)cc1O [CBDV, cannabidivarin, reference compound]
levels of interleukin-6 (IL-6) and lactate dehydrogenase (LDH) (astrocytes): attenuated levels

C=C(CC(=O)OCCCCCCCC)C(=O)O [4-octyl-itaconate]
replication of SARS-CoV-2 in vitro (SARS-CoV-2 [11]): inhibited replication

bromelain
toxicity (PGE-2): very low toxicity
effect on PGE-2 inhibition (PGE-2; compared with prednisone and aspirin): exceeds that of prednisone and aspirin
infection of VeroE6 cells by SARS-CoV-2 (SARS-CoV-2 [12]): inhibits infection

CC(=O)N[C@@H](CS)C(=O)O [N-acetylcysteine, reference compound]
incidence of clinically apparent influenza and influenza-like episodes (influenza): significantly reduced
inhibition of H5N1 replication [13]: dose dependent manner
production of pro-inflammatory cytokines (IL-8, CXCL10, CCL5 and IL-6) [13]: reduced the production
in vitro binding of RBD and ACE2 (RBD and ACE2): inhibited
spike-mediated cell-cell fusion (SARS-CoV-2 spike): inhibited
pseudotyped viral infection (pseudotyped SARS-CoV-2): inhibited

CCCCCc1cc(O)c(C/C=C(\C)CCC=C(C)C)c(O)c1C(=O)O [cannabigerolic acid]
entry of live SARS-CoV-2 into cells (live SARS-CoV-2): prevented entry
infection of human epithelial cells by pseudovirus [14]: prevented infection

C[S+]([O-])CCCCN=C=S (stereo not shown) [SFN, Sulforaphane]
toxicity in cell culture [15]: limited toxicity
antiviral activity ([15]; multiple strains of SARS-CoV-2, including Delta and Omicron): potent antiviral activity
lung viral replication and virus-induced inflammation [16]: significantly limited
antiviral activity (HCoV-OC43): potent antiviral activity

Nc1nc2c(c(=O)[nH]1)NC(CNc1ccc(C(=O)N[C@@H](CCC(=O)O)C(=O)O)cc1)CN2 (stereo partly shown) [tetrahydrofolic acid]
binding affinities against the SARS-CoV-2 (SARS-CoV-2 [1]): strong and stable binding affinities

C=C(C)[C@@H]1CCC(C)=C[C@H]1c1c(O)cc(CCCCC)c(C(=O)O)c1O [cannabidiolic acid]
entry of live SARS-CoV-2 into cells (live SARS-CoV-2): prevented entry
infection of human epithelial cells by pseudovirus [14]: prevented infection

[Zn] [zinc]
mRNA levels of glutamate-cysteine ligase [17]: upregulates

CCCCCc1cc(O)c(C/C=C(\C)CCC=C(C)C)c(O)c1 [CBG, Cannabigerol]
levels of DNA damage proteins (astrocytes): decreased levels
levels of interleukin-6 (IL-6) and lactate dehydrogenase (LDH) (astrocytes): attenuated levels

COC(=O)/C=C/C(=O)OC [dimethyl fumarate]
replication of SARS-CoV-2 in vitro (SARS-CoV-2 [11]): inhibited replication

CC1=CC(=O)C(C(C)C)=CC1=O [Thymoquinone]
anticoagulant activity (blood coagulation): possesses anticoagulant activity

COc1cc(/C=C/C(=O)CC(=O)/C=C/c2ccc(O)c(OC)c2)ccc1O [curcumin, diferuloylmethane]
oral absorption / systemic bioavailability [6]: minimal absorption

CCCCCc1cc(O)c2c(c1)OC(C)(C)c1ccc(C)cc1-2 [Cannabinol]
affinity for CB1 (CB1): minimal affinity
binding to CB2 [18]: preferentially binds

CC1(C)CC[C@]2(C(=O)O)CC[C@]3(C)C(=CC[C@@H]4[C@@]5(C)CC[C@H](O)[C@@](C)(CO)[C@@H]5CC[C@]43C)[C@@H]2C1 [hederagenin]
docking binding score with 6Y2E (main proteases (6Y2E)): less than saquinavir
